# Data published in paper PMC9024363, “Study on the Biochemical Characterization and Selectivity of Three β-Glucosidases From Bifidobacterium adolescentis ATCC15703” (Frontiers in Microbiology, 2022).
# Assays:
# Format in all cases: biochemical
# BaBgl3A = target: T1, BaBgl3A (Bifidobacterium adolescentis, UniProt A1A2P2); assay: TLC and HPLC of products; conditions: optimum pH, 37 °C, 2 h; 5 mg/ml substrate
# T1 construct: gene BAD_1194; GH3; N-terminus from primer MSENTY
# T1 sequence (A1A2P2 1-751): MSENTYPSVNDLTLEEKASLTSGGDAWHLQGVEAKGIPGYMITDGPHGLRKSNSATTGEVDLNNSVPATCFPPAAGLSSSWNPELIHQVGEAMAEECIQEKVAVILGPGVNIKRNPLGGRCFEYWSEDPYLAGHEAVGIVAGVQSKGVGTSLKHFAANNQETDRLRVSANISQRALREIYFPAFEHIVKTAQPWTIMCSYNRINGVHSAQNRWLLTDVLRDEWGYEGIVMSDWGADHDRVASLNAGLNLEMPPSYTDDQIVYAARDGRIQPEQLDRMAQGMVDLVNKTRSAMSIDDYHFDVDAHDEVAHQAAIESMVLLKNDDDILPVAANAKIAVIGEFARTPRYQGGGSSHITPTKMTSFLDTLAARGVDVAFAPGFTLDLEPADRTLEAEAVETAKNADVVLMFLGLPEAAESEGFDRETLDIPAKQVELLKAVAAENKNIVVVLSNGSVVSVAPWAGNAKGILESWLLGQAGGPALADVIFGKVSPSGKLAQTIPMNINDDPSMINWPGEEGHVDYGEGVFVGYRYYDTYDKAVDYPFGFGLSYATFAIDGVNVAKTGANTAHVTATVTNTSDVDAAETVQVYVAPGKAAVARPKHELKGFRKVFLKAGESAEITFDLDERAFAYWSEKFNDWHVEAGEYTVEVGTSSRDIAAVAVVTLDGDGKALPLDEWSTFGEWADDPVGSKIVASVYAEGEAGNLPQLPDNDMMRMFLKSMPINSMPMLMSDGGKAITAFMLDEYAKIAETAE
# BaBgl1A [1] = target: T2, BaBgl1A (Bifidobacterium adolescentis, UniProt A1A2Y5); assay: pNPβGlc hydrolysis, absorbance […] nm; conditions: competitive; pNPβGlc substrate; optimum pH 6.0, 30 °C
# T2 construct: gene BAD_1287; GH1; N-terminus from primer MKEQYE
# T2 sequence (A1A2Y5 1-391): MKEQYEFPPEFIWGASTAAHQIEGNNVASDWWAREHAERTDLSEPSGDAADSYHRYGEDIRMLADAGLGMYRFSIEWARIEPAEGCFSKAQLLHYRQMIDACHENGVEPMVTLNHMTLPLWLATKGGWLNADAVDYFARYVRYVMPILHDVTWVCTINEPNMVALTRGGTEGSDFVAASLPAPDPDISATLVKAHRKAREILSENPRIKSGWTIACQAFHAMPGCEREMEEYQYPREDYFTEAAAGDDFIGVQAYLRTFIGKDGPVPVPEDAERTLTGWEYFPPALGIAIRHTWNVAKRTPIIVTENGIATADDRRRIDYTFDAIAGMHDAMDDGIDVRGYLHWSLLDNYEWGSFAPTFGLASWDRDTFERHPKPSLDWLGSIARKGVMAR
# BaBgl3B [2] = target: T3, BaBgl3B (Bifidobacterium adolescentis, UniProt A1A2P5); assay: pNPβGlc hydrolysis, absorbance […] nm; conditions: competitive; pNPβGlc substrate; optimum pH 6.5, 50 °C
# T3 construct: gene bglX; GH3; N-terminus from primer MSSCGC
# T3 sequence (A1A2P5 1-809): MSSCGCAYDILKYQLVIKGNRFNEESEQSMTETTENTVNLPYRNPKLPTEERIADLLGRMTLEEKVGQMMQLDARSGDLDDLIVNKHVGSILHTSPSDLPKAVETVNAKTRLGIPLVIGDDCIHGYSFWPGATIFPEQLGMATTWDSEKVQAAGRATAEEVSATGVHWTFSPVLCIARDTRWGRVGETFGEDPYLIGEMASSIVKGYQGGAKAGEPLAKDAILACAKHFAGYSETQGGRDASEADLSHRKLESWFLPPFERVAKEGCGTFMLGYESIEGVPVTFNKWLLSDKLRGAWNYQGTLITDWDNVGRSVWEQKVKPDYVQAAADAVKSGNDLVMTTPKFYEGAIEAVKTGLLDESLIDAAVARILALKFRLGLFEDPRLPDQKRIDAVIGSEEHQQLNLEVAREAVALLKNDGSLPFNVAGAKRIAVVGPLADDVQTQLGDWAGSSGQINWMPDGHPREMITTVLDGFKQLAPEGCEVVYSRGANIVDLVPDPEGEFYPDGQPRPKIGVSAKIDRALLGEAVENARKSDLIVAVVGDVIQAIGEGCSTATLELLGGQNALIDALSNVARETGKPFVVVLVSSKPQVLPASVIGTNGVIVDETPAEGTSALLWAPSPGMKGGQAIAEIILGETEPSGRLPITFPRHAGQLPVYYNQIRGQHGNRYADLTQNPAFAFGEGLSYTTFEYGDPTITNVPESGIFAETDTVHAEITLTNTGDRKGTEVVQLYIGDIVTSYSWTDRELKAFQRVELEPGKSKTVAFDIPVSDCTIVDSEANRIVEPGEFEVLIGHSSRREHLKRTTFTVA
# BaBgl1A [3] = target: T2, BaBgl1A; assay: pNPβGlc hydrolysis, absorbance […] nm
# BaBgl3B [4] = target: T3, BaBgl3B; assay: pNPβGlc hydrolysis, absorbance […] nm
compound,measurement,setting,value
CC(C)=CCC[C@](C)(O[C@@H]1O[C@H](CO[C@@H]2O[C@H](CO)[C@@H](O)[C@H](O)[C@H]2O)[C@@H](O)[C@H](O)[C@H]1O)[C@H]1CC[C@]2(C)[C@@H]1[C@H](O)C[C@@H]1[C@@]3(C)CC[C@H](O[C@@H]4O[C@H](CO)[C@@H](O)[C@H](O)[C@H]4O[C@@H]4O[C@H](CO)[C@@H](O)[C@H](O)[C@H]4O)C(C)(C)[C@@H]3CC[C@]12C [Rb1],TLC and HPLC of products,BaBgl3A,Rb1 could be converted into Rd and Gyp XVII by BaBgl3A
OCC1(O)OC[C@@H](O)[C@@H](O)[C@@H]1O (some centres unmarked) [fructose],% inhibition,BaBgl1A [1],mannose and fructose acted as competitive inhibitors for BaBgl1A and BaBgl3B
same,% inhibition,BaBgl3B [2],mannose and fructose acted as competitive inhibitors for BaBgl1A and BaBgl3B
OC[C@H]1OC(O)[C@@H](O)[C@@H](O)[C@@H]1O (some centres unmarked) [mannose],inhibition at 1 M,BaBgl1A [3],> 70%
same,inhibition at 1 M,BaBgl3B [4],> 70%
